Assay: Free radical scavenging by ESR with DPPH
Settings: 100 μg mixed with alcohol solution of DPPH for 2 minutes
Method: The free radical scavenging capacity of the Bacopa monniera extract product was evaluated using spectrophotometric and electron spin resonance (ESR) techniques. ESR is considered to be the least ambiguous method for the detection of free radicals. 2,2-Diphenyl -1-picrylhydrazyl (DPPH) was used as a stable free radical. An alcohol solution of DPPH was mixed with 100 μg of a Bacopa monniera extract product for 2 minutes and then ESR measurements were conducted. Quercetine was used as a positive control for scavenging the free radicals.

O=c1c(O)c(-c2ccc(O)c(O)c2)oc2cc(O)cc(O)c12 [quercetine, Quercetine]
effect on DPPH free radical ESR peak: slight change in peak height

Source: patent US20190388490A1, “PLANT EXTRACTIONS, COMPOSITIONS CONTAINING SAME, AND USES THEREOF” (priority 2010, published 2019)
